Data from publication PMC11357992, “Non-invasive mapping of systemic neutrophil dynamics upon cardiovascular injury” (Nature Cardiovascular Research, 2023).
Values joined by “and” are separate entries in the source; they are usually repeats but may differ in a detail not shown here. Equal values may be shown once. Where no end group is shown, it is not given here. Side-chain parts run from the residue outwards. rhodamine‑labelled PEGylated perfluoro‑15‑crown‑5 ether nanoemulsion = not defined here; carboxyfluorescein = N-terminal fluorescence label (CF)

What was measured:
[1] = system: murine neutrophils; assay: Phagocytosis of FITC-labeled E. coli particles by murine neutrophils after mNPPFC injection; type: in vivo, mouse; details: in the presence of the targeting PFCs
Procedure: […] per kg BW ^mNPPFCs or saline were injected i.v., followed by 100 µl FITC-labeled Escherichia coli particles (Thermo Fisher) 2 h later. […] Thereafter, FITC labeling was determined by flow cytometry.
Extended Data Fig. 9 Impact of ^mNPPFCs on murine neutrophils. a, Differentially expressed genes (DEGs) identified by bulk RNA sequencing of murine blood neutrophils after intravenous injection of ^mNPPFCs, ^ConPFCs or NaCl (Ctrl) as control. Volcano plots of DEGs for murine neutrophils of animals treated with saline compared to ^mNPPFCs (left), or ^ConPFCs compared to ^mNPPFC (right). […] BF = Bonferroni corrected p-values of the false discovery rate. In total 25655 RNA transcripts were analyzed. b, Cell surface expression of CD11b, CD62L, CD63 on blood derived murine neutrophils after intravenous application of NaCl (Ctrl) or ^mNPPFCs. As a positive control, matrigel doped with 50 µg LPS was subcutaneously implanted into the neck of mice and after 24 h, neutrophils were isolated from the blood and analyzed by flow cytometry. c, Impact of ^mNPPFC incubation on neutrophil migration, phagocytosis and release of reactive oxygen species (ROS). […]

[2] = system: bone marrow neutrophils; assay: In vivo mNPPFC labeling of bone marrow neutrophils after Matrigel-LPS, 1H/19F MRI; design: species or system mouse; details: individual experiments; for total amount of 19F in the bone marrow (1H/19F MRI): mNPPFCs 1 mmol per kg BW i.v. 24 h after implantation, MRI another 24 h later; for 19F signal normalized to the number of neutrophils in the bone marrow: neutrophil number by flow cytometry directly after MRI
Procedure: To induce defined inflammatory foci, we adopted a recently developed model of localized subcutaneous inflammation. To this end, ice-cold Matrigel (Corning) was doped with LPS (1 µg µl^−1; Salmonella typhimurium, Sigma-Aldrich) and subcutaneously (s.c.) implanted into the neck of the mice. Twenty-four hours after implanting the plug, neutrophils were isolated from the blood and incubated ex vivo with ^mNPPFCs or ^ConPFCs. In separate experiments, 24 h after implantation, ^mNPPFCs or ^ConPFCs were injected intravenously, and immune cells were isolated from the blood. In further experiments, 1 d after plug injection, mice received 1 mmol per kg BW ^mNPPFCs, and, 24 h later, the bone marrow was analyzed by ^1H/^19F MRI. Thereafter, mice were killed, and neutrophils were isolated from the bone marrow for determination of cell numbers. In each case, immune cells were analyzed by flow cytometry.
(§1) Slice packages were placed in sagittal orientation to cover the complete bone marrow in the tibia and femur in both legs using the following scan details: ^1H RARE, TR = 2,000 ms, FOV = 4.00 × 2.56 cm^2, matrix = 256 × 256, ST = 1 mm, tAcq = 1 min; ^19F RARE, TR = 2,500 ms, FOV = 4.00 × 2.56 cm^2, matrix = 64 × 64, ST = 3 mm, tAcq = 10 min.

[3] = system: bone marrow neutrophils; assay: In situ labeling of bone marrow neutrophils and tracking after MI, 1H/19F MRI of bone marrow; type: in vivo, mouse
Procedure: For labeling of neutrophils before MI, mice were anesthetized (1.5% isoflurane) and 1 mmol per kg BW PFCs were injected intravenously via the tail vein on 3 consecutive days. Induction of MI was essentially carried out as previously described. For inhibiting the egress of neutrophils from the bone marrow in a subset of experiments, a cocktail of neutralizing antibodies was injected i.p. 1 h before and 4 h after MI (CXCL1, CXCL2, G-CSF, GM-CSF, 50 µg each, Thermo Fisher). To generate neutropenic mice, 48 and 24 h before MI, 500 µg of the Ly6G-depletion antibody (BioXcell, clone 1A8) was injected i.p. in independent experiments.
All experiments were performed with a vertical 9.4 T Bruker AVANCE^III Wide Bore NMR spectrometer (Bruker) driven by ParaVision 5.1 and operating at frequencies of 400.21 MHz for ^1H measurements and 376.54 MHz for ^19F measurements using a Bruker microimaging unit, Micro2.5, with actively shielded gradient sets (1.5 T m^−1). Data were acquired using a 25-mm quadrature ^19F resonator with one channel tunable to both ^1H and ^19F. Mice were anesthetized with 1.5% isoflurane and kept at 37 °C. After acquisition of morphological ^1H images, the resonator was tuned to ^19F, and anatomically matching ^19F images were recorded essentially as described previously. […]
as §1
Extended Data Fig. 4 Experimental timeline and whole body ^1H/^19F MRI of a ^mNPPFC-treated mouse. a, To label neutrophils within the bone marrow, ^mNPPFCs (or ^ConPFCs as control) were intravenously injected on three consecutive days (day −3, −2, −1) followed by ^1H/^19F MRI of the bone marrow on day 0. Subsequently, MI was induced and bone marrow and the infarcted heart were analyzed by combined ^1H/^19F MRI 24 h later. b, In separate experiments, neutralizing antibodies against CXCL1, CXCL2, G-CSF and GM-CSF were injected intraperitoneally (i. p.; 50 µg) 1 h before and 4 h post induction of MI to inhibit the MI-stimulated egress of neutrophils from the bone marrow and their infiltration into the heart. c, To determine the whole body biodistribution of ^mNPPFCs, ^mNPPFCs were intravenously injected daily over three consecutive days. Afterwards, whole body ^1H/^19F MRI measurements were performed to visualize the labelled neutrophils in the different bone marrow compartments. The bright ^19F spot in the middle represents the liver – an organ known to be as major site of (PFC) nanoparticle deposition.
Extended Data Fig. 5 ^mNPPFC incorporation into the bone marrow and cardiac function after MI. a, Impact of neutrophil depletion on ^mNPPFC incorporation into the bone marrow: For in vivo labeling of bone marrow neutrophils, ^mNPPFCs were injected intravenously and 24 h later the ^19F signal within the femur and tibia was determined (gray). […] The marrow mainly belongs to the diaphysis whereas the growth of the bones takes place at the inner and outer epiphysis. […]

Substance: mNPPFCs: PEGylated rhodamine-labeled perfluoro-15-crown-5 ether nanoemulsion (maleimide PFCs) coupled with murine neutrophil-specific peptide mNP (carboxyfluorescein-DFYKPMPNLRITGGGC([maleimide‑PEG2000‑DSPE-rhodamine‑labelled PEGylated perfluoro‑15‑crown‑5 ether nanoemulsion]); reading uncertain; also: printed as DFYKPMPNLRIT-GGG-C)
- phagocytosis by murine neutrophils [1]: unaltered
- total amount of 19F in the bone marrow (1H/19F MRI) ([2]; Ctrl: Matrigel-PBS plug): 505497 and 895713 and 688103 and 1.24E+06 and 1.03E+06
- 19F signal normalized to the number of neutrophils in the bone marrow ([2]; Ctrl: Matrigel-PBS plug): 5335.62 and 16297.54 and 4781.15 and 12000.14 and 6924.34
- total amount of 19F in the bone marrow (1H/19F MRI) ([2]; LPS: Matrigel-LPS plug): 1632050.00 and 894870.00 and 1335810.00 and 1304290.00 and 940933.00
- 19F signal normalized to the number of neutrophils in the bone marrow ([2]; LPS: Matrigel-LPS plug): 47748.80 and 38144.50 and 144567.64 and 78101.02 and 94661.27
- 19F signal of bone marrow, Post ([3]; 1H/19F MRI, after MI, panel B raw data, single animals): 384270 and 284234 and 342343 and 246818 and 294364 and 237217 and 352300
- 19F signal of bone marrow, Pre ([3]; 1H/19F MRI, before MI, panel B raw data, single animals): 555612 and 765758 and 385254 and 440946 and 378880 and 354237 and 356979 and 487088 and 602276
- 19F signal within the femur and tibia (bone marrow) ([3]; Ctrl (no depletion), 24 h after i.v. mNPPFC injection, individual experiments): 1.88E+06 and 1.21E+06 and 1.06E+06 and 1.73E+06
- change of bone marrow 19F signal 24 h after MI ([3]; femur and tibia, daily i.v. injections over 3 d before MI): substantial reduction
- BM 19F signal post MI normalized to the 19F signals detected before induction of MI ([3]; mNPPFC-labeled mice, Nabs = plus antibodies against CXCL1, CXCL2, G-CSF, GM-CSF i.p. 1 h before and 4 h post MI, individual experiments): 69.1617 and 64.46 and 69.676 and 82.4597 and 48.7011 and 58.4948 and 73.1944 and 76.1165
